Assays:
[1] = biological target: T1, BDCA-2 CRD (blood dendritic cell antigen 2) (Homo sapiens, UniProt Q8WTT0); experiment: solid-phase competition with […]-Man-BSA on immobilised CRD; assay type: binding; details: half-maximal inhibition, Ca2+-dependent
T1 construct: gene CLEC4C; extracellular C-type carbohydrate recognition domain; expected mass of CRD 17,100; monomer
T1 sequence (Q8WTT0 67-213): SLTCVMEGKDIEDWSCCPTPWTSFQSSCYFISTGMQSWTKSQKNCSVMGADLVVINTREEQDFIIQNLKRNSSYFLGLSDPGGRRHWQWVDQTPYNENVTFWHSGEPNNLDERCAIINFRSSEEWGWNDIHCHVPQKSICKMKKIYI

[2] = biological target: T1, BDCA-2 CRD (blood dendritic cell antigen 2); experiment: as above; assay type: binding; details: half-maximal inhibition; Ca2+-dependent

| SMILES | Ki [1] [µM] | KI relative to KI for α-methyl mannoside [2] | other results |
| --- | --- | --- | --- |
| CC(=O)N[C@H]1[C@H](O[C@@H]2C(O)O[C@H](CO)[C@@H](O)[C@@H]2O)O[C@H](CO)[C@@H](O[C@@H]2O[C@H](CO)[C@H](O)[C@H](O)[C@H]2O)[C@@H]1O (some centres unmarked) [Galβ1–4GlcNAcβ1–2Man] | – | – | Ki ([1]; extended site, mannose at Ca2+): 9.2 ± 1.4 µM |
| CO[C@H]1O[C@H](CO)[C@@H](O)[C@H](O)[C@H]1NC(C)=O [GlcNAc (α-methyl glycoside)] | – | including glucose and GlcNAc, as well as L-fucose, also compete for binding | – |
| CC(=O)N[C@H]1[C@H](O[C@@H]2C(O)O[C@H](CO)[C@@H](O)[C@@H]2O)O[C@H](CO)[C@@H](O)[C@@H]1O (some centres unmarked) [GlcNAcβ1–2Man] | 92 ± 12 | – | – |
| CO[C@@H]1O[C@@H](C)[C@@H](O)[C@@H](O)[C@@H]1O [L-fucose (α-methyl glycoside)] | – | including glucose and GlcNAc, as well as L-fucose, also compete for binding | – |
| CO[C@H]1O[C@H](CO)[C@H](O)[C@H](O)[C@H]1O [galactose (α-methyl glycoside)] | – | Comparison of mannose and galactose as competing ligands confirmed the affinity chromatography results | – |
| CO[C@H]1O[C@H](CO)[C@@H](O)[C@H](O)[C@H]1O [glucose (α-methyl glycoside)] | – | including glucose and GlcNAc, as well as L-fucose, also compete for binding | – |

Second part, led by results:

| Ki [1] [µM] | SMILES | KI relative to KI for α-methyl mannoside [2] | other results |
| --- | --- | --- | --- |
| 0.46 ± 0.01 | CC(=O)N[C@H]1[C@H](O[C@H]2[C@H](O)[C@@H](NC(C)=O)C(O)O[C@@H]2CO)O[C@H](CO)[C@@H](O[C@@H]2O[C@H](CO[C@H]3O[C@H](CO)[C@@H](O)[C@H](O)[C@@H]3O[C@@H]3O[C@H](CO)[C@@H](O[C@@H]4O[C@H](CO)[C@H](O)[C@H](O)[C@H]4O)[C@H](O)[C@H]3NC(C)=O)[C@@H](O)[C@H](O[C@H]3O[C@H](CO)[C@@H](O)[C@H](O)[C@@H]3O[C@@H]3O[C@H](CO)[C@@H](O[C@@H]4O[C@H](CO)[C@H](O)[C@H](O)[C@H]4O)[C@H](O)[C@H]3NC(C)=O)[C@@H]2O)[C@@H]1O (some centres unmarked) [asialo biantennary glycan] | – | – |
| 320 ± 20 | CC(=O)N[C@H]1[C@H](O[C@H]2[C@H](O)[C@@H](NC(C)=O)C(O)O[C@@H]2CO)O[C@H](CO)[C@@H](O[C@@H]2O[C@H](CO[C@H]3O[C@H](CO)[C@@H](O)[C@H](O)[C@@H]3O[C@@H]3O[C@H](CO)[C@@H](O[C@@H]4O[C@H](CO[C@]5(C(=O)O)C[C@H](O)[C@@H](NC(C)=O)[C@H]([C@H](O)[C@H](O)CO)O5)[C@H](O)[C@H](O)[C@H]4O)[C@H](O)[C@H]3NC(C)=O)[C@@H](O)[C@H](O[C@H]3O[C@H](CO)[C@@H](O)[C@H](O)[C@@H]3O[C@@H]3O[C@H](CO)[C@@H](O[C@@H]4O[C@H](CO[C@]5(C(=O)O)C[C@H](O)[C@@H](NC(C)=O)[C@H]([C@H](O)[C@H](O)CO)O5)[C@H](O)[C@H](O)[C@H]4O)[C@H](O)[C@H]3NC(C)=O)[C@@H]2O)[C@@H]1O (some centres unmarked) [disialylated oligosaccharide] | – | – |

From publication PMC4505424, “A Novel Mechanism for Binding of Galactose-terminated Glycans by the C-type Carbohydrate Recognition Domain in Blood Dendritic Cell Antigen 2” (The Journal of Biological Chemistry, 2015)
